According to patent US20220395582A1, “COMPOSITIONS AND METHODS OF INDUCING DIFFERENTIATION OF A HAIR CELL” (Akouos, Inc., priority 2018, published 2022):

Key:
ATOH1, POU4F3, and GFI1 = assay: Relative quantification of ATOH1, POU4F3 and GFI1 RNA in HEK293FT cells transfected with individual plasmids; format: cell-based; conditions: FIG. 6A
Source text: FIG. 6A is a bar graph showing the relative quantification of ATOH1, POU4F3, and GFI1 (APG) RN in HEK293FT cells transfected with the individual plasmids of FIGS. 4A-C.
The data in FIGS. 6A and 6B show overexpression of ATOH1, POU4F3 and GFI-1 in HEK293FT cells that were transfected with the vectors of FIGS. 4A-4D.

HEK293FT cells [1] = assay: Destabilizing domain (DD) functionality and reversibility, TMP dose response by fluorescence microscopy; format: cell-based; conditions: TMP 0.1, 1, 10, 20 and 100 μM, FIG. 8A
Description: FIG. 8A is a dose response curve showing the functionality and reversibility of the destabilizing domain (DD) using fluorescence microscopy. Serial dilutions of TMP (0.1 μM, 1 μM, 10 μM, 20 μM and 100 μM) were tested in the mScarlet and mScarlet-DD transfected HEK293FT cells.
(§1) HEK293FT cells were transfected with mScarlet and mScarlet-DD vectors (FIGS. 7A-7B). The data in FIGS. 8A and 8B show the functionality and reversibility of the destabilizing domain (DD) using fluorescence microscopy and flow cytometry, respectively.

[2] = tested on: hair cells and supporting cells in cochlear explants; assay: mScarlet positive hair cells and supporting cells in cochlear explants infected with AAVanc80, with and without TMP; format: cell-based, mouse; conditions: with and without 10 uM TMP, FIG. 10
Description: FIG. 9A is an image showing mScarlet positive cells in a P1-P3 mouse cochlea explant transfected with AAVanc80 vector at various MOIs. 10 μM TMP was added at a later time point.
FIG. 10 is an image showing mScarlet positive hair cells and supporting cells in a cochlear explants infected with AAVanc80 with and without 10 uM TMP that was added at a later time point.
as §1

HEK293FT cells [3] = assay: mScarlet positive HEK293FT cells with AAVanc80 vector at various MOIs, with or without TMP; format: cell-based; conditions: 10 μM TMP added later, FIGS. 9A and 9B
Description: FIG. 9B is an image showing mScarlet positive HEK293FT cells transfected with AAVanc80 vector at various MOIs. 10 μM TMP was added at a later time point.
as §1

Row | Molecule | ATOH1 and GFI-1 mRNA levels on overexpression of POU4F3 (ATOH1, POU4F3, and GFI1) | percentage of mScarlet positive cells (HEK293FT cells [1]) | mScarlet expression in cochlear explants [2] | mScarlet expression (HEK293FT cells [3])
1 | POU4F3: nucleic acid vector with CMV promoter, human POU4F3 gene, 3×Flag, T2A, mScarlet and destabilizing domain | increase in ATOH1 and GFI-1 mRNA levels | – | – | –
2 | mScarlet-DD: nucleic acid vector with ITR, CMV promoter, mScarlet, destabilizing domain (DD) and bGHpA sequences | – | increased proportionately with increasing concentration of TMP | only seen in the presence of TMP | primarily seen in mScarlet-DD transfected cells in the presence of TMP
3 | mScarlet: nucleic acid vector with ITR, CMV promoter, mScarlet and bGHpA sequences (nucleic acid, pITR-CMV-mScarlet-bGHpA) DNA: CCTGCAGGCAGCTGCGCGCTCGCTCGCTCACTGAGGCCGCCCGGGCGTCGGGCGACCTTTGGTCGCCCGGCCTCAGTGAGCGAGCGAGCGCGCAGAGAGGGAGTGGCCAACTCCATCACTAGGGGTTCCTGTGATGCGGTTTTGGCAGTACATCAATGGGCGTGGATAGCGGTTTGACTCACGGGGATTTCCAAGTCTCCACCCCATTGACGTCAATGGGAGTTTGTTTTGGCACCAAAATCAACGGGACTTTCCAAAATGTCGTAACAACTCCGCCCCATTGACGCAAATGGGCGGTAGGCGTGTACGGTGGGAGGTCTATATAAGCAGAGCTCGTTTAGTGAACCGTCAGATCGCCTGGAGACGCGTGAGCAAGGGCGAGGCAGTGATCAAGGAGTTCATGCGGTTCAAGGTGCACATGGAGGGCTCCATGAACGGCCACGAGTTCGAGATCGAGGGCGAGGGCGAGGGCCGCCCCTACGAGGGCACCCAGACCGCCAAGCTGAAGGTGACCAAGGGTGGCCCCCTGCCCTTCTCCTGGGACATCCTGTCCCCTCAGTTCATGTACGGCTCCAGGGCCTTCATCAAGCACCCCGCCGACATCCCCGACTACTATAAGCAGTCCTTCCCCGAGGGCTTCAAGTGGGAGCGCGTGATGAACTTCGAGGACGGCGGCGCCGTGACCGTGACCCAGGACACCTCCCTGGAGGACGGCACCCTGATCTACAAGGTGAAGCTCCGCGGCACCAACTTCCCTCCTGACGGCCCCGTAATGCAGAAGAAGACAATGGGCTGGGAAGCGTCCACCGAGCGGTTGTACCCCGAGGACGGCGTGCTGAAGGGCGACATTAAGATGGCCCTGCGCCTGAAGGACGGCGGCCGCTACCTGGCGGACTTCAAGACCACCTACAAGGCCAAGAAGCCCGTGCAGATGCCCGGCGCCTACAACGTCGACCGCAAGTTGGACATCACCTCCCACAACGAGGACTACACCGTGGTGGAACAGTACGAACGCTCCGAGGGCCGCCACTCCACCGGCGGCATGGACGAGCTGTACAAGTAAGCTGATCAGCCTCGACTGTGCCTTCTAGTTGCCAGCCATCTGTTGTTTGCCCCTCCCCCGTGCCTTCCTTGACCCTGGAAGGTGCCACTCCCACTGTCCTTTCCTAATAAAATGAGGAAATTGCATCGCATTGTCTGAGTAGGTGTCATTCTATTCTGGGGGGTGGGGTGGGGCAGGACAGCAAGGGGGAGGATTGGGAAGACAATAGCAGGCATGCTGGGGATGCGGTGGGCTCTATGGAGGAACCCCTAGTGATGGAGTTGGCCACTCCCTCTCTGCGCGCTCGCTCGCTCACTGAGGCCGGGCGACCAAAGGTCGCCCGACGCCCGGGCTTTGCCCGGGCGGCCTCAGTGAGCGAGCGAGCGCGCAGCTGCCTGCAGG | – | remained constant regardless of TMP concentration | seen in hair cells and supporting cells | seen in all HEK293FT cells
